Experimental data: publication PMC3598812, “Evaluation of Anti-Hyperalgesic and Analgesic Effects of Two Benzodiazepines in Human Experimental Pain: A Randomized Placebo-Controlled Study” (PLoS ONE, 2013)
Entries after “also recorded” stand apart in the source; their conditions may differ.

What was measured:
Type in all cases: in vivo, human
healthy male volunteers [1] = test: Cutaneous single electrical stimulation pain threshold; settings: mean (SD)
Experimental: (§1) Electrical stimulation was performed through electrodes placed distal to the lateral malleolus. A 25 ms, train-of-five, 1 ms, square-wave impulse (perceived as one stimulus), was delivered by a computer-controlled constant current stimulator (Digitimer DS7A, Neurospec, Letchworth Garden City, UK). The current intensity was increased from 1 mA in steps of 0.5 mA until a pain sensation was evoked.
(§2) Three assessments were made and the mean of these 3 measurements was used for the data analysis.

healthy male volunteers [2] = test: Cuff algometry (tourniquet cuff on the leg, VAS-time AUC); parameters: AUC of VAS during cuff algometry: unit not given beside the values; settings: for AUC of VAS during cuff algometry: mean (SD)
From the text: A tourniquet cuff was applied to the middle of the leg, at the level of the heads of the gastrocnemius and soleus muscle. The cuff was applied at the side contralateral to the side of electrical stimulation in order not to interfere with the positioning of the intramuscular electrodes. During stimulation, the volunteer rated the pain intensity on an electronic VAS scale. The cuff was inflated with compressed air until VAS 6 was reached. The maximum allowed inflating pressure was 200 kPa. The pressure was maintained for 10 min or until the subjects rated the pain as intolerable. The area under the curve VAS-time was computed. For those subjects who felt intolerable pain before 10 min, the time when the cuff was deflated was recorded and VAS 10 was extrapolated until 10 min. Additionally, the maximal VAS during inflation was recorded.

healthy male volunteers [3] = test: Conditioned pain modulation (cold pressor test and pressure algometry); settings: difference in pressure pain detection threshold after vs before cold pressor test, mean (SD)
From the text: This method explores the endogenous modulation of nociceptive input. Under normal conditions, pain after application of a “test” nociceptive stimulus is attenuated by the application of an additional conditioning noxious stimulus to a remote body region, reflecting diffuse endogenous inhibition, [20]. In the present study, pressure pain detection threshold and cold pressure test (see below) were used as test and conditioning stimuli, respectively. An increase in pressure pain detection threshold immediately after cold pressure test was an indication of CPM.
The subjects placed their hand into a container filled with ice water. In order to maximize heterotopic stimulation, the hand contralateral to the side of pressure stimulation was used. The water was regularly mixed to maintain the temperature near to 0°C. The temperature of the water near the hand was monitored by a thermometer with a digital display (±0.1°C). The subjects were asked to keep the hand in the water until they felt an intolerable sensation of pain and were forced to remove the hand from the container, with a maximum time of 2 min.
Pressure pain detection threshold was measured again at the same time as the subject was withdrawing the hand from the water (one single measurement). CPM was measured as the difference in pressure pain detection threshold between measurements after and before the cold pressure test.

healthy male volunteers [4] = test: Intramuscular repeated (5 stimuli) electrical stimulation pain threshold; settings: for Pain threshold after 5 intramuscular electrical stimuli: mean (SD)
From the text: (§3) The stimulus burst used for single stimulus was repeated 5 times at 2 Hz, at constant intensity. The current intensity of the 5 stimuli was increased from 1 mA in steps of 0.5 mA until the subjects felt pain during the last 2–3 of the 5 stimuli (indicating temporal summation).
(§4) A needle was placed in the tibialis anterior muscle, 14 cm distal from the caudal end of the patella and 20 mm in depth. The same single and repeated stimulation patterns and the same procedure described for cutaneous stimulation were used.

healthy male volunteers [5] = test: Cutaneous repeated (5 stimuli) electrical stimulation, temporal summation threshold; settings: mean (SD)
From the text: as §3, §2

healthy male volunteers [6] = test: Pain rating (VAS) after graded von Frey hair stimulation in the capsaicin hyperalgesic area
Experimental: Additionally, mechanical pain sensitivity was assessed using a set of seven weighted pinprick stimuli to obtain a stimulus-response function. The test was applied 1 cm inside the outer border of the pinprick hyperalgesic area, using a set of 7 graded von Frey hair mechanical stimulators with fixed stimulus intensities (custom-made at Aalborg University, Denmark). The flat contact area of the stimulators has a 0.2 mm diameter, and the 7 stimulators exert forces of 8, 16, 32, 64, 128, 256 and 512 mN. The order of stimulation was defined randomly by computer. The stimulators were applied at a rate of 2 s on/2 s off. Subjects were asked to give a pain rating for each stimulus on a 10 cm VAS. Two assessments for each stimulation were made and the mean of these 2 measurements was used for the data analysis.

healthy male volunteers [7] = test: Intramuscular single electrical stimulation pain threshold (tibialis anterior); settings: mean (SD)
Experimental: as §1, §4

[8] = baseline before medication, per drug session
[9] = single oral dose (clobazam 20 mg, clonazepam 1 mg, tolterodine 1 mg), 30 min after medication
[10] = single oral dose (clobazam 20 mg, clonazepam 1 mg, tolterodine 1 mg), 60 min after medication
[11] = single oral dose (clobazam 20 mg, clonazepam 1 mg, tolterodine 1 mg), 90 min after medication
[12] = single oral dose (clobazam 20 mg, clonazepam 1 mg, tolterodine 1 mg), 120 min after medication
[13] = single oral dose (clobazam 20 mg, clonazepam 1 mg, tolterodine 1 mg), after flumazenil 0.2 mg iv
[14] = VAS 0-10, single oral dose (clobazam 20 mg, clonazepam 1 mg, tolterodine 1 mg), 30 min after medication, mean (SD)
[15] = VAS 0-10, single oral dose (clobazam 20 mg, clonazepam 1 mg, tolterodine 1 mg), 60 min after medication, mean (SD)
[16] = VAS 0-10, single oral dose (clobazam 20 mg, clonazepam 1 mg, tolterodine 1 mg), 90 min after medication, mean (SD)
[17] = VAS 0-10, single oral dose (clobazam 20 mg, clonazepam 1 mg, tolterodine 1 mg), 120 min after medication, mean (SD)
[18] = VAS 0-10, single oral dose (clobazam 20 mg, clonazepam 1 mg, tolterodine 1 mg), after flumazenil 0.2 mg iv, mean (SD)

CN1C(=O)CC(=O)N(c2ccccc2)c2cc(Cl)ccc21 [Clobazam]
Pain threshold after single cutaneous electrical stimulation (healthy male volunteers [1]; [8]): 10.0 (2.9) mA
Pain threshold after single cutaneous electrical stimulation (healthy male volunteers [1]; [9]): 10.3 (3.6) mA
Pain threshold after single cutaneous electrical stimulation (healthy male volunteers [1]; [10]): 10.2 (3.8) mA
Pain threshold after single cutaneous electrical stimulation (healthy male volunteers [1]; [11]): 11.2 (3.3) mA
Pain threshold after single cutaneous electrical stimulation (healthy male volunteers [1]; [12]): 12.2 (3.9) mA
Pain threshold after single cutaneous electrical stimulation (healthy male volunteers [1]; [13]): 12.0 (4.3) mA
AUC of VAS during cuff algometry (healthy male volunteers [2]; [8]): 3446 (539)
Cuff algometry, overview of peak value or subgroup analysis (healthy male volunteers [2]; overview table, compared to tolterodine): Time factor significant, favouring clobazam and clonazepam compared to tolterodine
AUC of VAS during cuff algometry (healthy male volunteers [2]; [12]): 3001 (831)
AUC of VAS during cuff algometry (healthy male volunteers [2]; [13]): 2932 (566)
Conditioned pain modulation (healthy male volunteers [3]; [8]): 71 (98) kPa
Conditioned pain modulation (healthy male volunteers [3]; [12]): 99 (99) kPa
Conditioned pain modulation (healthy male volunteers [3]; [13]): 58 (67) kPa
Pain threshold after 5 intramuscular electrical stimuli (healthy male volunteers [4]; [8]): 1.4 (1.1) mA
Change in pain threshold after 5 intramuscular electrical stimuli between baseline and 120 minutes (healthy male volunteers [4]; main analysis, pairwise multiple comparison): statistically significant increase; also recorded: Significant increase in pain thresholds
Change in pain detection threshold after 5 intramuscular electrical stimuli from baseline to peak value (healthy male volunteers [4]; peak value analysis, pairwise comparisons within each drug): significant increase; also recorded: Consistent for an increase in pain thresholds after clobazam and clonazepam
Pain threshold after 5 intramuscular electrical stimuli (healthy male volunteers [4]; [12]): 2.1 (2.2) mA
Pain threshold after 5 intramuscular electrical stimuli (healthy male volunteers [4]; [13]): 2.2 (2.0) mA
Pain threshold after 5 cutaneous electrical stimuli (healthy male volunteers [5]; [8]): 8.3 (3.0) mA
Pain threshold after 5 cutaneous electrical stimuli (healthy male volunteers [5]; [9]): 8.7 (3.4) mA
Pain threshold after 5 cutaneous electrical stimuli (healthy male volunteers [5]; [10]): 8.7 (3.4) mA
Pain threshold after 5 cutaneous electrical stimuli (healthy male volunteers [5]; [11]): 9.3 (2.9) mA
Pain threshold after 5 cutaneous electrical stimuli (healthy male volunteers [5]; [12]): 9.9 (3.3) mA
Pain threshold after 5 cutaneous electrical stimuli (healthy male volunteers [5]; [13]): 9.7 (3.3) mA
VAS after von Frey hair 8 mN (healthy male volunteers [6]; [14]): 1.1 (1.2)
VAS after von Frey hair 16 mN (healthy male volunteers [6]; [14]): 2.0 (2.1)
VAS after von Frey hair 32 mN (healthy male volunteers [6]; [14]): 2.0 (1.6)
VAS after von Frey hair 64 mN (healthy male volunteers [6]; [14]): 2.3 (2.0)
VAS after von Frey hair 128 mN (healthy male volunteers [6]; [14]): 2.9 (2.0)
VAS after von Frey hair 256 mN (healthy male volunteers [6]; [14]): 3.3(2.3)
VAS after von Frey hair 512 mN (healthy male volunteers [6]; [14]): 4.5 (2.5)
VAS after von Frey hair 8 mN (healthy male volunteers [6]; [15]): 1.9 (3.3)
VAS after von Frey hair 16 mN (healthy male volunteers [6]; [15]): 2.3 (3.2)
VAS after von Frey hair 32 mN (healthy male volunteers [6]; [15]): 2.4 (2.8)
VAS after von Frey hair 64 mN (healthy male volunteers [6]; [15]): 2.5 (2.0)
VAS after von Frey hair 128 mN (healthy male volunteers [6]; [15]): 3.4 (2.7)
VAS after von Frey hair 256 mN (healthy male volunteers [6]; [15]): 3.7 (2.6)
VAS after von Frey hair 512 mN (healthy male volunteers [6]; [15]): 4.8 (2.8)
VAS after von Frey hair 8 mN (healthy male volunteers [6]; [16]): 1.2 (1.4)
VAS after von Frey hair 16 mN (healthy male volunteers [6]; [16]): 1.4 (1.6)
VAS after von Frey hair 32 mN (healthy male volunteers [6]; [16]): 2.1 (2.2)
VAS after von Frey hair 64 mN (healthy male volunteers [6]; [16]): 2.1 (1.9)
VAS after von Frey hair 128 mN (healthy male volunteers [6]; [16]): 3.5 (2.3)
VAS after von Frey hair 256 mN (healthy male volunteers [6]; [16]): 3.9 (2.5)
VAS after von Frey hair 512 mN (healthy male volunteers [6]; [16]): 4.9 (2.6)
VAS after von Frey hair 8 mN (healthy male volunteers [6]; [17]): 1.3 (1.4)
VAS after von Frey hair 16 mN (healthy male volunteers [6]; [17]): 1.3 (1.5)
VAS after von Frey hair 32 mN (healthy male volunteers [6]; [17]): 1.9 (1.9)
VAS after von Frey hair 64 mN (healthy male volunteers [6]; [17]): 2.7 (2.7)
VAS after von Frey hair 128 mN (healthy male volunteers [6]; [17]): 3.0 (2.6)
VAS after von Frey hair 256 mN (healthy male volunteers [6]; [17]): 3.8 (2.6)
VAS after von Frey hair 512 mN (healthy male volunteers [6]; [17]): 4.7 (2.7)
VAS after von Frey hair 8 mN (healthy male volunteers [6]; [18]): 1.1 (1.1)
VAS after von Frey hair 16 mN (healthy male volunteers [6]; [18]): 1.3 (1.1)
VAS after von Frey hair 32 mN (healthy male volunteers [6]; [18]): 1.9 (1.9)
VAS after von Frey hair 64 mN (healthy male volunteers [6]; [18]): 2.2 (1.7)
VAS after von Frey hair 128 mN (healthy male volunteers [6]; [18]): 2.9 (2.1)
VAS after von Frey hair 256 mN (healthy male volunteers [6]; [18]): 3.9 (2.2)
VAS after von Frey hair 512 mN (healthy male volunteers [6]; [18]): 5.1 (2.5)
VAS after von Frey hair 512 mN (healthy male volunteers [6]; subgroup analysis (n = 8), 30 minutes, mean): 3.2
VAS after von Frey hair 512 mN (healthy male volunteers [6]; subgroup analysis (n = 8), 120 minutes, mean): 5.1
Pain threshold after single intramuscular electrical stimulation (healthy male volunteers [7]; [8]): 1.7 (1.2) mA
Pain threshold after single intramuscular electrical stimulation (healthy male volunteers [7]; [12]): 3.1 (4.6) mA
Pain threshold after single intramuscular electrical stimulation (healthy male volunteers [7]; [13]): 2.5 (2.1) mA
